Data on 19 molecules can be found in publication PMC6446940 (ChemMedChem, 2018).

The target of data set [1] is HIV-1 Reverse Transcriptase (RT) (Human immunodeficiency virus type 1 group M subtype B, UniProt P04585). Nature of the data set: biochemical. The format is biochemical.
Data set [2] is described as follows: Cytotoxicity. The format is cell-based. The settings on record: human, TZM-bl cells, TZMb-l CC50, TZM-bl cells, 3 days, MTS; mean ± SD, n=3.
The nature of data set [3]: Cytotoxicity. Type of data set: cell-based, human. The settings on record: human, MT-2 cells, MT-2 CC50, MT-2 cells, MTS; mean ± SD, n=3.
Another data set relates to pseudovirus HIV-1HXB2. Nature of the data set: Single-cycle infection assay in TZM-bl cells. The settings on record: for antiviral activity (in words): SAR discussion of Table 1.
A further data set has as its system TZM-bl cells. Nature of the data set: Cytotoxicity. The settings on record: for CC50: read-out: TZMb-l CC50, TZM-bl cells, 3 days, MTS, mean ± SD, n=3; for cytotoxicity higher compared with the parent compounds: compared with NBD-14122 / NBD-14123; for cytotoxicity became higher: di-fluoro at position 2 of 1,3-benzodioxole, versus non-fluorinated compounds. The format is cell-based.

The subject of a further data set is HIV-1IIIB. Nature of the data set: Multi-cycle infection assay in MT-2 cells. The format is cell-based. The settings on record: read-out: MT-2 IC50, p24, mean ± SD, n=3.
For the next data set, the system named is MT-2 cells. Nature of the data set: Cytotoxicity. Type of data set: cell-based, human. The settings on record: read-out: MT-2 CC50, MTS, mean ± SD, n=3.

Turning to `CC1(C)CC(NC(=O)C(=O)Nc2ccc(Cl)cc2)CC(C)(C)N1` [NBD-556, reference compound], the IC50 (as a rule, the concentration at which inhibition is half-maximal) in data set [1] (HIV-1 Reverse Transcriptase, mean ± SD, n=3) was over 300 µM. In data set [1] (at 300 μM), the “activity against HIV-1 RT” value is recorded as “no activity”.
As to `Cc1nc(C(CN)NC(=O)C(=O)Nc2ccc3c(c2)OCO3)sc1CO` (stereo not drawn) [NBD-14108, N1-(2-amino-1-(5-(hydroxymethyl)-4-methylthiazol-2-yl)ethyl)-N2-(benzo[d][1,3]dioxol-5-yl)oxalamide], the CC50 (as a rule, the concentration at which the toxic effect on the cells reaches its halfway point) at 3 days in the data set “Cytotoxicity [2]” was at least 750 µM. In addition, in “Cytotoxicity [3]”, the CC50 at 4 days is at least 650 µM. Besides, in the data set on pseudovirus HIV-1HXB2, the “antiviral activity (in words)” value is given as “completely lost”.
With `Cc1nc(C(CN)NC(=O)c2ccc(-c3ccc4c(c3)OCO4)[nH]2)sc1CO` (stereo not drawn) [NBD-14111, N-(2-amino-1-(5-(hydroxymethyl)-4-methylthiazol-2-yl)ethyl)-5-(benzo[d][1,3]dioxol-5-yl)-1H-pyrrole-2-carboxamide], the CC50 in the data set on TZM-bl cells stood at 146 ± 5.2 µM; in the data set on MT-2 cells, 170 ± 9 µM. The IC50 with HIV-1IIIB was 9.8 ± 4.8 µM. The “antiviral activity (in words)” value with pseudovirus HIV-1HXB2 is “lost its antiviral activity”.
Consider `Cc1nc(C(NC(=O)c2ccc(-c3ccc4c(c3)OCO4)[nH]2)C(C)(C)N)sc1CO` (stereo not drawn) [NBD-14116, N-(2-amino-1-(5-(hydroxymethyl)-4-methylthiazol-2-yl)-2-methylpropyl)-5-(benzo[d][1,3]dioxol-5-yl)-1H-pyrrole-2-carboxamide], for which, in “Cytotoxicity [2]”, half-maximal cytotoxicity (CC50 at 3 days) was put at 55.2 ± 5.4 µM. This molecule also showed a CC50 at 4 days in the data set “Cytotoxicity [3]” of 98 ± 2.2 µM.
As for `Cc1nc(C(NC(=O)c2ccc(-c3ccc4c(c3)OCO4)[nH]2)C(C)(C)N)sc1CO` (stereo not drawn) [NBD-14117, N-(2-amino-1-(5-(hydroxymethyl)-4-methylthiazol-2-yl)-2-methylpropyl)-5-(benzo[d][1,3]dioxol-5-yl)-1H-pyrrole-2-carboxamide], the figures for the CC50 in the data set on TZM-bl cells and with MT-2 cells were 66.9 ± 1.4 µM and 98 ± 1.5 µM, respectively. Besides, the IC50 in the data set with HIV-1IIIB came out at 2.5 ± 1 µM.
Turning to `CC(C)(N)C(NC(=O)c1ccc(-c2ccc3c(c2)OCO3)[nH]1)c1ncc(CO)s1` (stereo not drawn) [NBD-14118, N-(2-amino-1-(5-(hydroxymethyl)thiazol-2-yl)-2-methylpropyl)-5-(benzo[d][1,3]dioxol-5-yl)-1H-pyrrole-2-carboxamide], the CC50 at 3 days in “Cytotoxicity [2]” turned out to be 64.3 ± 3.7 µM. The molecule further displayed a CC50 at 4 days in the data set “Cytotoxicity [3]” of 123 ± 10.5 µM.
Turning to `CC(C)(N)C(NC(=O)c1ccc(-c2ccc3c(c2)OCO3)[nH]1)c1ncc(CO)s1` (stereo not drawn) [NBD-14119, N-(2-amino-1-(5-(hydroxymethyl)thiazol-2-yl)-2-methylpropyl)-5-(benzo[d][1,3]dioxol-5-yl)-1H-pyrrole-2-carboxamide], the CC50 in the data set with TZM-bl cells was found to be 69.2 ± 3.8 µM; in the data set on MT-2 cells it was 106 ± 4.4 µM. For the same molecule, the IC50 in the data set on HIV-1IIIB stood at 2.8 ± 0.9 µM. Also, the “improvement in antiviral activity/potency compared with NBD-14123” value in the data set on pseudovirus HIV-1HXB2 is recorded as ~ 2.3 fold.
Take `NCC(NC(=O)c1ccc(-c2ccc3c(c2)OCO3)[nH]1)c1ncc(CO)s1` (stereo not drawn) [NBD-14122, N-(2-amino-1-(5-(hydroxymethyl)thiazol-2-yl)ethyl)-5-(benzo[d][1,3]dioxol-5-yl)-1H-pyrrole-2-carboxamide]: the CC50 with TZM-bl cells turned out to be 154.4 ± 1.5 µM; in the data set on MT-2 cells, 183 ± 3 µM. The IC50 in the data set on HIV-1IIIB was determined as 5.1 ± 0.4 µM.
In the data set “Cytotoxicity [2]”, `NCC(NC(=O)c1ccc(-c2ccc3nsnc3c2)[nH]1)c1ncc(CO)s1` (stereo not drawn) [NBD-14126, N-(2-amino-1-(5-(hydroxymethyl)thiazol-2-yl)ethyl)-5-(benzo[c][1,2,5]thiadiazol-5-yl)-1H-pyrrole-2-carboxamide] had a CC50 at 3 days of 79.9 ± 1 µM. The “cytotoxicity higher compared with the parent compounds” value in the data set with TZM-bl cells is on record as “about 1.5 fold”. For the same molecule, the CC50 at 4 days in “Cytotoxicity [3]” is 117 ± 4.3 µM. Moreover, the “improvement in antiviral activity compared with NBD-14122” value in the data set on pseudovirus HIV-1HXB2 is given as “about 2.8 fold”.
Regarding `NCC(NC(=O)c1ccc(-c2ccc3nsnc3c2)[nH]1)c1ncc(CO)s1` (stereo not drawn) [NBD-14127, N-(2-amino-1-(5-(hydroxymethyl)thiazol-2-yl)ethyl)-5-(benzo[c][1,2,5]thiadiazol-5-yl)-1H-pyrrole-2-carboxamide], in the data set on TZM-bl cells, the “cytotoxicity higher compared with the parent compounds” value is “about 1.5 fold” and the CC50 was determined as 96.7 ± 2.9 µM. Moreover, the IC50 in the data set with HIV-1IIIB was 7.3 ± 1.5 µM. Also, the CC50 in the data set with MT-2 cells worked out at 137 ± 1.5 µM. In the data set with pseudovirus HIV-1HXB2, the “improvement in antiviral activity/potency compared with NBD-14123” value is ~ 1.6 fold.
In the case of `CC1(C)Oc2ccc(-c3ccc(C(=O)NC(CN)c4ncc(CO)s4)[nH]3)cc2O1` (stereo not drawn) [NBD-14133, N-(2-amino-1-(5-(hydroxymethyl)thiazol-2-yl)ethyl)-5-(2,2-dimethylbenzo[d][1,3]dioxol-5-yl)-1H-pyrrole-2-carboxamide], it took 64 ± 1.2 µM to reach half-maximal cytotoxicity in “Cytotoxicity [2]” (CC50 at 3 days). Also, the CC50 at 4 days in the data set “Cytotoxicity [3]” is 96.5 ± 1.2 µM. In addition, in the data set on pseudovirus HIV-1HXB2, the “antiviral activity (in words)” value is “lost their antiviral potency”.
For the molecule `CC1(C)Oc2ccc(-c3ccc(C(=O)NC(CN)c4ncc(CO)s4)[nH]3)cc2O1` (stereo not drawn) [NBD-14134, N-(2-amino-1-(5-(hydroxymethyl)thiazol-2-yl)ethyl)-5-(2,2-dimethylbenzo[d][1,3]dioxol-5-yl)-1H-pyrrole-2-carboxamide], the CC50 in the data set on TZM-bl cells was 61.1 ± 1.4 µM; with MT-2 cells it was 89.3 ± 1.3 µM. Also, in the data set on HIV-1IIIB, the IC50 was determined as 15.3 ± 5 µM. Further, the “antiviral activity (in words)” value in the data set with pseudovirus HIV-1HXB2 is “lost their antiviral potency”.
On to `CNCC(NC(=O)c1ccc(-c2ccc3c(c2)OCO3)[nH]1)c1ncc(CO)s1` (stereo not drawn) [NBD-14139, 5-(benzo[d][1,3]dioxol-5-yl)-N-(1-(5-(hydroxymethyl)thiazol-2-yl)-2-(methylamino)ethyl)-1H-pyrrole-2-carboxamide], for which the CC50 at 3 days in the data set “Cytotoxicity [2]” is 149 ± 11.3 µM. This molecule also displayed a CC50 at 4 days in “Cytotoxicity [3]” of 178 ± 8 µM.
In the case of `CNCC(NC(=O)c1ccc(-c2ccc3c(c2)OCO3)[nH]1)c1ncc(CO)s1` (stereo not drawn) [NBD-14140, 5-(benzo[d][1,3]dioxol-5-yl)-N-(1-(5-(hydroxymethyl)thiazol-2-yl)-2-(methylamino)ethyl)-1H-pyrrole-2-carboxamide], the results for the CC50 in the data set on TZM-bl cells and in the data set on MT-2 cells were 153 ± 11.5 µM and 173 ± 8 µM, respectively. In addition, in the data set on HIV-1IIIB, the IC50 is 9.32 ± 2.8 µM.
In “Cytotoxicity [2]”, `NCC(NC(=O)c1ccc(-c2ccc3c(c2)OC(F)(F)O3)[nH]1)c1ncc(CO)s1` (stereo not drawn) [NBD-14144, N-(2-amino-1-(5-(hydroxymethyl)thiazol-2-yl)ethyl)-5-(2,2-difluorobenzo[d][1,3]dioxol-5-yl)-1H-pyrrole-2-carboxamide] yielded a CC50 at 3 days of 37.9 ± 2.4 µM. For the same molecule, the cytotoxicity became higher in the data set on TZM-bl cells is recorded as ~ 3.9 fold. Moreover, the CC50 at 4 days in the data set “Cytotoxicity [3]” came out at 43.4 ± 3.6 µM. Also, the “improvement in antiviral activity compared with NBD-14122” value with pseudovirus HIV-1HXB2 is given as ~ 4.5 fold.
With `NCC(NC(=O)c1ccc(-c2ccc3c(c2)OC(F)(F)O3)[nH]1)c1ncc(CO)s1` (stereo not drawn) [NBD-14145, N-(2-amino-1-(5-(hydroxymethyl)thiazol-2-yl)ethyl)-5-(2,2-difluorobenzo[d][1,3]dioxol-5-yl)-1H-pyrrole-2-carboxamide], in the data set on TZM-bl cells, the cytotoxicity became higher is given as ~ 3.9 fold and the CC50 came to 38.7 ± 1.3 µM. Besides, the IC50 in the data set with HIV-1IIIB came to 3.1 ± 0.5 µM. In addition, in the data set with MT-2 cells, the CC50 came to 41 ± 2.7 µM. Besides, the “improvement in antiviral activity” value with pseudovirus HIV-1HXB2 (di-fluoro at position 2 of 1,3-benzodioxole, comparator not stated) is ~ 1.7 fold.
The molecule `CNCC(NC(=O)c1ccc(-c2ccc3c(c2)OCO3)[nH]1)c1nc(CO)cs1` (stereo not drawn) [NBD-14158, 5-(benzo[d][1,3]dioxol-5-yl)-N-(1-(4-(hydroxymethyl)thiazol-2-yl)-2-(methylamino)ethyl)-1H-pyrrole-2-carboxamide] returned a CC50 at 3 days in the data set “Cytotoxicity [2]” of 157 ± 7.8 µM. Besides, in the data set with HIV-1IIIB, the IC50 worked out at 9.5 ± 0.5 µM. In the data set “Cytotoxicity [3]”, this molecule showed a CC50 at 4 days of 192 ± 4.2 µM.
As to `NCC(NC(=O)c1ccc(-c2ccc3c(c2)OCO3)[nH]1)c1nc(CO)cs1` (stereo not drawn) [NBD-14172, N-(2-amino-1-(4-(hydroxymethyl)thiazol-2-yl)ethyl)-5-(benzo[d][1,3]dioxol-5-yl)-1H-pyrrole-2-carboxamide], the CC50 at 3 days in “Cytotoxicity [2]” was 92.3 ± 2.9 µM. The IC50 in the data set with HIV-1IIIB was determined as 2.4 ± 0.3 µM. The CC50 at 4 days in the data set “Cytotoxicity [3]” worked out at 156 ± 14.3 µM. The “improvement in antiviral activity/potency compared with NBD-14123” value in the data set on pseudovirus HIV-1HXB2 was “about 1.5 fold”.
Consider `NCC(NC(=O)c1ccc(-c2ccc3c(c2)OCO3)[nH]1)c1nc(CO)cs1` (stereo not drawn) [NBD-14173, N-(2-amino-1-(4-(hydroxymethyl)thiazol-2-yl)ethyl)-5-(benzo[d][1,3]dioxol-5-yl)-1H-pyrrole-2-carboxamide], for which the values for the CC50 with TZM-bl cells and with MT-2 cells were 105 ± 7.9 µM and 176 ± 4.3 µM, respectively. Moreover, in the data set with HIV-1IIIB, the IC50 turned out to be 8.2 ± 2.7 µM.
